From PubChem BioAssay (NCI)
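Test compounds were applied to cells in 96-well plates for 48 hours at 5 doses. The concentration for 50% growth inhibition is given as GI50. TGI is the concentration that stops growth completely.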

Key:
Experiment in all cases: growth of human tumour cells (NCI), 48 h
CAKI-1 renal = tested on: CAKI-1 renal
OVCAR-4 ovarian = tested on: OVCAR-4 ovarian
SK-MEL-28 melanoma = tested on: SK-MEL-28 melanoma
KM12 colon = tested on: KM12 colon
HCT-15 colon = tested on: HCT-15 colon
A498 renal = tested on: A498 renal
SNB-75 CNS = tested on: SNB-75 CNS
U251 CNS = tested on: U251 CNS
NCI-H522 lung = tested on: NCI-H522 lung
T-47D breast = tested on: T-47D breast

Row | SMILES | TGI (CAKI-1 renal) | TGI (OVCAR-4 ovarian) | TGI (SK-MEL-28 melanoma) | TGI (KM12 colon) | TGI (HCT-15 colon) | TGI (A498 renal) | TGI (SNB-75 CNS) | TGI (U251 CNS) | GI50 (OVCAR-4 ovarian) | GI50 (SK-MEL-28 melanoma) | GI50 (KM12 colon) | GI50 (NCI-H522 lung) | TGI (NCI-H522 lung) | GI50 (T-47D breast) | TGI (T-47D breast) | GI50 (HCT-15 colon) | GI50 (U251 CNS) | GI50 (A498 renal) | GI50 (SNB-75 CNS) | GI50 (CAKI-1 renal)
1 | COc1cccc(OC)c1/C=N\N1C(=O)c2ccccc2C1=O | > 100 µM | > 100 µM | > 100 µM | > 100 µM | > 100 µM | > 100 µM | 98.1 µM |  |  |  |  |  |  |  |  |  |  |  |  | 
2 | Cc1cc2c(=O)cc(-c3ccncc3)oc2c(C(=O)O)c1C |  |  | > 100 µM |  | > 100 µM |  | > 100 µM | > 100 µM |  |  |  |  |  |  |  |  |  |  |  | 
3 | CCn1c(SC)nnc1-c1cc2c([nH]c3ccccc32)c(-c2cccc(O)c2)n1 |  | 13 µM | 21 µM | 44.7 µM | 51.6 µM | 10.9 µM | 3.94 µM | 19.1 µM | 2.75 µM | 2.69 µM | 3 µM | 1.06 µM | 11.8 µM | 1.78 µM | 22.5 µM | 0.95 µM | 2.97 µM | 1.42 µM | 1.3 µM | 
4 | CC(=O)OCC1OC(OC(C)=O)C(NC#N)C(OC(C)=O)C1OC(C)=O (configuration not stated) | > 100 µM | > 100 µM | > 100 µM | > 100 µM | > 100 µM | > 100 µM | > 100 µM | > 100 µM |  |  |  |  | > 100 µM |  |  |  |  |  |  | 
5 | CCNC(=O)O/N=C1/C=C2CC[C@@H]3C(CC[C@@]4(C)C3CC[C@@H]4OC(=O)NCC)[C@@]2(C)CC1 (some centres not stated) | 16.9 µM | 6.39 µM | 14.6 µM | 9.58 µM | 11.2 µM | > 100 µM | 5.94 µM | 5.28 µM |  |  |  |  | 4.77 µM |  |  |  |  |  |  | 
6 | COC(=O)N/N=C(\c1nc2ccc(Cl)cc2[nH]c1=O)C(O)c1ccc([N+](=O)[O-])cc1 (configuration not stated) | > 100 µM | > 100 µM | > 100 µM | > 100 µM | > 100 µM |  | > 100 µM | > 100 µM |  |  |  |  | > 100 µM |  |  |  |  |  |  | 
7 | COc1cc(COC(=O)NC(Cc2cccs2)C(=O)O)c([N+](=O)[O-])cc1OC (configuration not stated) |  |  | > 100 µM | > 100 µM | > 100 µM | > 100 µM | > 100 µM | > 100 µM |  |  |  |  |  |  | > 100 µM |  |  |  |  | 
8 | O=c1cccccc1[O-].O=c1cccccc1[O-].O=c1cccccc1[O-].[Dy+3] | > 100 µM | > 100 µM | > 100 µM | > 100 µM | > 100 µM | > 100 µM | 52.1 µM | > 100 µM |  |  |  |  | > 100 µM |  |  |  | 24.8 µM | 80.7 µM |  | 
9 | CN(C)C(=O)c1cc2cnc(Nc3ccc(N4CCNCC4)cn3)nc2n1C1CCCC1 | > 100 µM | 86.8 µM | 48.3 µM | 32.9 µM | > 100 µM | 30.9 µM | 22 µM | 49.8 µM | 22.4 µM | 16.1 µM | 2.85 µM |  |  | 12.9 µM | 91.8 µM | 16.6 µM | 11.3 µM | 11.8 µM | 10.2 µM | 20 µM
10 | O=[N+]([O-])C1(CO)COC(CCc2ccccc2)OC1 (configuration not stated) |  | > 100 µM | > 100 µM | > 100 µM | > 100 µM |  | > 100 µM | > 100 µM |  |  |  |  | > 100 µM |  |  |  |  |  |  | 
11 | COC(=O)C1=C(C)C(=O)C2(CCCCCC2C(=O)OC)C1 (configuration not stated) | > 100 µM | > 100 µM | > 100 µM | > 100 µM | > 100 µM | > 100 µM | > 100 µM | > 100 µM |  |  |  |  | > 100 µM |  |  |  |  |  |  | 
